Source: patent US10800791B2, “Triazole ACC inhibitors and uses thereof” (Gilead Apollo, LLC, priority 2015, dated 2020)
In brackets after ≈: the same amount, converted by molar mass. Like-named read-outs stand apart in the source and are kept apart here.

How the values were obtained:
[1] = system: Fusarium moniliforme (Fm); assay: Growth inhibition assay of fungal pathogens, Fm; assay type: cell-based; settings: for IC90: Fusarium verticillioides, 48 h, read-out: Concentration at 90% Inhibition Fm
Outline: (§1)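 Spores diluted in 17% V8 liquid media and incubated with compound at final 50, 10, 2 ppm or 2, 0.4, 0.08 ppm (2% DMSO). OD600 plus visual ratings at 24 and 48 hours, blank-subtracted; percent growth inhibition from 48 h readings relative to 2% DMSO control.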

Septoria tritici (St) = assay: Growth inhibition assay of fungal pathogens, St; assay type: cell-based; settings: Zymoseptoria tritici, 48 h
Outline: as §1

[2] = system: Fusarium virguliforme (Fv); assay: Growth inhibition assay of fungal pathogens, Fv; assay type: cell-based; settings: 48 h
Outline: as §1

fungal (fACC2) = fungal (fACC2) (UniProt Q00955); settings: read-out: fACC2 (in vitro ACC2 Inhibition Assay, IC50), ADP-Glo, 5 nM ACC2, 20 μM ATP, 20 μM acetyl-CoA
Rhizoctonia solani (Rs) = assay: Growth inhibition assay of fungal pathogens, Rs; assay type: cell-based; settings: 48 h
C. albicans = assay: Antifungal Activity Assay (broth microtiter MIC), C. albicans; assay type: cell-based, Candida albicans; settings: Candida albicans, ATCC90028, 48 h
Outline: (§2)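 Susceptibility was determined by CLSI M27-A3 broth microdilution in RPMI 1640 buffered with MOPS. Growth inhibition was scored visually after 48 h.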

C. krusei = assay: Antifungal Activity Assay (broth microtiter MIC), C. krusei; assay type: cell-based, Candida krusei; settings: Pichia kudriavzevii, ATCC6258, 48 h
Outline: as §2

C. parapsilosis = assay: Antifungal Activity Assay (broth microtiter MIC), C. parapsilosis; assay type: cell-based, Candida parapsilosis; settings: Lodderomyces parapsilosis, ATCC22019, 48 h
Outline: as §2

Diplodia maydis (Dm) = assay: Growth inhibition assay of fungal pathogens, Dm; assay type: cell-based; settings: Stenocarpella maydis, 48 h
Outline: as §1

[3] = system: Collectotrichum graminicola (Cg); assay: Growth inhibition assay of fungal pathogens, Cg; assay type: cell-based; settings: 48 h
Outline: as §1

Botrtyis cinerea (Bc) = assay: Growth inhibition assay of fungal pathogens, Bc; assay type: cell-based; settings: 48 h
Outline: as §1

[4] = Fusarium moniliforme, growth inhibition at 48 hours vs 2% DMSO control
[5] = Fusarium moniliforme, growth inhibition vs 2% DMSO control at 48 hours
[6] = Septoria tritici, growth inhibition at 48 hours vs 2% DMSO control, read-out: Concentration at 90% Inhibition St
[7] = Septoria tritici, growth inhibition vs 2% DMSO control at 48 hours, read-out: Concentration at 90% Inhibition St
[8] = growth inhibition at 48 hours vs 2% DMSO control, read-out: Concentration at 90% Inhibition Fv
[9] = growth inhibition vs 2% DMSO control at 48 hours, read-out: Concentration at 90% Inhibition Fv
[10] = mycelial plugs, growth inhibition at 48 hours vs 2% DMSO control, read-out: Concentration at 90% Inhibition Rs
[11] = mycelial plugs, growth inhibition vs 2% DMSO control at 48 hours, read-out: Concentration at 90% Inhibition Rs
[12] = Table 3a, ATCC 90028, 3 replicates, MIC recorded at 48 h, read-out: MIC, C. albicans ATCC 90028
[13] = Table 3b (additional results), ATCC 90028, 3 replicates, MIC recorded at 48 h, read-out: MIC, C. albicans ATCC 90028
[14] = Table 3a, ATCC 6258, 3 replicates, MIC recorded at 48 h, read-out: MIC, C. krusei ATCC 6258
[15] = Table 3b (additional results), ATCC 6258, 3 replicates, MIC recorded at 48 h, read-out: MIC, C. krusei ATCC 6258
[16] = Table 3a, ATCC 22019, 3 replicates, MIC recorded at 48 h, read-out: MIC, C. parapsilosis ATCC 22019
[17] = Table 3b (additional results), ATCC 22019, 3 replicates, MIC recorded at 48 h, read-out: MIC, C. parapsilosis ATCC 22019
[18] = Diplodia maydis, growth inhibition at 48 hours vs 2% DMSO control, read-out: Concentration at 90% Inhibition Dm
[19] = Diplodia maydis, growth inhibition vs 2% DMSO control at 48 hours, read-out: Concentration at 90% Inhibition Dm
[20] = Collectotrichum graminicola, growth inhibition at 48 hours vs 2% DMSO control, read-out: Concentration at 90% Inhibition Cg
[21] = Collectotrichum graminicola, growth inhibition vs 2% DMSO control at 48 hours, read-out: Concentration at 90% Inhibition Cg
[22] = Botrtyis cinerea, growth inhibition at 48 hours vs 2% DMSO control, read-out: Concentration at 90% Inhibition Bc
[23] = Botrtyis cinerea, growth inhibition vs 2% DMSO control at 48 hours, read-out: Concentration at 90% Inhibition Bc

Sequence of fungal (fACC2) (Q00955 whole entry): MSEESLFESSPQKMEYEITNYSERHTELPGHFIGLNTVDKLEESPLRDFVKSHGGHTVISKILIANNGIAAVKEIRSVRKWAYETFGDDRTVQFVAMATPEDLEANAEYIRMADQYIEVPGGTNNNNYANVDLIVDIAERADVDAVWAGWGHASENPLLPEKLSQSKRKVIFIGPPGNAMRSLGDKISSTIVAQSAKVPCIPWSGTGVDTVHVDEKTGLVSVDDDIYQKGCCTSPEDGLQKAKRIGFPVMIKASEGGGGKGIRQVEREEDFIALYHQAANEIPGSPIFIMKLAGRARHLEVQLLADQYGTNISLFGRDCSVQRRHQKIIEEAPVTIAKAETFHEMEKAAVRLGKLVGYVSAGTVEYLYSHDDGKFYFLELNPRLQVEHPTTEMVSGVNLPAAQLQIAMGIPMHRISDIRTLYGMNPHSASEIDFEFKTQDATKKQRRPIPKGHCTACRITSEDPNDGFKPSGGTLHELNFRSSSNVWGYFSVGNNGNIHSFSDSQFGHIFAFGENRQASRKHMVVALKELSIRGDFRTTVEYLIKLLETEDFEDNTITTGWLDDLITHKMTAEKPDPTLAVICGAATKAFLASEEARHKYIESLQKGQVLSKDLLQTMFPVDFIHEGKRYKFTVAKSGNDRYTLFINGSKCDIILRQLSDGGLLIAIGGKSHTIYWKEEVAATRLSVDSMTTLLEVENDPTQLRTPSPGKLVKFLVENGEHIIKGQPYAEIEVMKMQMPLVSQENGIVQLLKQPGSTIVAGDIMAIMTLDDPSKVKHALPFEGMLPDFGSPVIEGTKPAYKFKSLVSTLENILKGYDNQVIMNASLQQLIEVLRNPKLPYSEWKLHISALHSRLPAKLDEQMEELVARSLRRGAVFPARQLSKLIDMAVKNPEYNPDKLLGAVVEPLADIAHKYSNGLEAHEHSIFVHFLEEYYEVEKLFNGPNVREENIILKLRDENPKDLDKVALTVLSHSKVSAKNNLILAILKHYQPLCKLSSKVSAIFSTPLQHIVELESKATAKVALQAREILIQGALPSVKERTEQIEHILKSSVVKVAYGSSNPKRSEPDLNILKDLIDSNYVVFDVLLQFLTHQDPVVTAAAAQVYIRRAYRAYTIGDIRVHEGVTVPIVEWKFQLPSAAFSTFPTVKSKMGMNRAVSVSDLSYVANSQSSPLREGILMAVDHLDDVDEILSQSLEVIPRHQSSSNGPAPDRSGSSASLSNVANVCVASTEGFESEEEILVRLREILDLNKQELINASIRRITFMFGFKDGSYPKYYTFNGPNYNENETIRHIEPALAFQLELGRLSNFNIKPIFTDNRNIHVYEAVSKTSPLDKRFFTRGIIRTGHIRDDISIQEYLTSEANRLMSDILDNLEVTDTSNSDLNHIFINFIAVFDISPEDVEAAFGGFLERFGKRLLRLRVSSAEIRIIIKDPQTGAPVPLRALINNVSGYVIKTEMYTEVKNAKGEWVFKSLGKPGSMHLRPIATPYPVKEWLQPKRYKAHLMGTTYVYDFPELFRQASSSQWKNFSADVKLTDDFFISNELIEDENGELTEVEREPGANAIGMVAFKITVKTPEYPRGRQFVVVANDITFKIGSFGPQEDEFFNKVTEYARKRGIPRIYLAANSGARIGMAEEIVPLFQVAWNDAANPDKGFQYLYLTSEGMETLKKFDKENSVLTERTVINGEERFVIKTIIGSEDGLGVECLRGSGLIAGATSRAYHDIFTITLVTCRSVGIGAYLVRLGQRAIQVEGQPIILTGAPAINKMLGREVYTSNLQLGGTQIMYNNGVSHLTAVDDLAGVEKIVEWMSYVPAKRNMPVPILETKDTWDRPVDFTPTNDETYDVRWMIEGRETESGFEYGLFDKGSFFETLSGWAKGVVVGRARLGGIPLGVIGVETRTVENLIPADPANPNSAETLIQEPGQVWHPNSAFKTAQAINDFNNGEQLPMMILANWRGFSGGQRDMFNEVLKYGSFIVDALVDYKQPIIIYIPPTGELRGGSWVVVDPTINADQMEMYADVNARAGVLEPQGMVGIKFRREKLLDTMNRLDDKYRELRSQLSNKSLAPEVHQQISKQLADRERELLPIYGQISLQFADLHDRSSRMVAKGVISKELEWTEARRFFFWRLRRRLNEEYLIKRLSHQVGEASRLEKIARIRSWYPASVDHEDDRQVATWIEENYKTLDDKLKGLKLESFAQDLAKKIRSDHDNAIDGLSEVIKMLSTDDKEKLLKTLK

Compound	IC90 [1, 4] [µg/mL]	IC90 [1, 5] [µg/mL]	IC90 (Septoria tritici (St); [6]) [µg/mL]	IC90 (Septoria tritici (St); [7]) [µg/mL]	IC90 [2, 8] [µg/mL]	IC90 [2, 9] [µg/mL]	IC50 (fungal (fACC2); Table 2a) [nM]	IC50 (fungal (fACC2); Table 2b, additional results) [nM]	IC90 (Rhizoctonia solani (Rs); [10]) [µg/mL]	IC90 (Rhizoctonia solani (Rs); [11]) [µg/mL]	MIC (C. albicans; [12]) [µg/mL]	MIC (C. albicans; [13]) [µg/mL]	MIC (C. krusei; [14]) [µg/mL]	MIC (C. krusei; [15]) [µg/mL]	MIC (C. parapsilosis; [16]) [µg/mL]	MIC (C. parapsilosis; [17]) [µg/mL]	IC90 (Diplodia maydis (Dm); [18]) [µg/mL]	IC90 (Diplodia maydis (Dm); [19]) [µg/mL]	IC90 [3, 20] [µg/mL]	IC90 [3, 21] [µg/mL]	further results
COc1ccc(F)cc1[C@H](Cn1c(=O)n([C@H](C)C(=O)NC2CCC2)c(=O)c2c(C)c(-n3nccn3)sc21)OCCO [Compound I-84, (R)—N-cyclobutyl-2-(1-((R)-2-(5-fluoro-2-methoxyphenyl)-2-(2-hydroxyethoxy)ethyl)-5-methyl-2,4-dioxo-6-(2H-1,2,3-triazol-2-yl)-1,4-dihydrothieno[2,3-d]pyrimidin-3(2H)-yl)propanamide]	0.08 (≈ 0.136 µM)	0.08 (≈ 0.136 µM)	2 (≈ 3.41 µM)	10 (≈ 17 µM)	0.4 (≈ 0.682 µM)	0.4 (≈ 0.682 µM)	0.4 to 1	0.3 to 1	0.08 (≈ 0.136 µM)	0.08 (≈ 0.136 µM)	1.1 to 2 (≈ 1.88 to 3.41 µM)	2.01 to 4 (≈ 3.43 to 6.82 µM)	0.25 to 1 (≈ 0.426 to 1.7 µM)	0.25 to 1 (≈ 0.426 to 1.7 µM)	0.25 to 1 (≈ 0.426 to 1.7 µM)	0.25 to 1 (≈ 0.426 to 1.7 µM)	0.4 (≈ 0.682 µM)	0.4 (≈ 0.682 µM)	0.08 (≈ 0.136 µM)	0.08 (≈ 0.136 µM)	IC90 (Botrtyis cinerea (Bc); [22]): 0.4 µg/mL (≈ 0.682 µM); IC90 (Botrtyis cinerea (Bc); [23]): 0.4 µg/mL (≈ 0.682 µM)
COc1ccc(F)cc1[C@H](Cn1c(=O)n([C@H](C)C(=O)N(C)C(C)C)c(=O)c2c(C)c(-n3nccn3)sc21)OCCO [Compound I-85, (R)-2-(1-((R)-2-(5-fluoro-2-methoxyphenyl)-2-(2-hydroxy-ethoxy)ethyl)-5-methyl-2,4-dioxo-6-(2H-1,2,3-triazol-2-yl)-1,4-dihydro-thieno[2,3-d]pyrimidin-3(2H)-yl)-N-isopropyl-N-methylpropanamide]	0.08 (≈ 0.136 µM)	0.08 (≈ 0.136 µM)	2 (≈ 3.4 µM)	10 (≈ 17 µM)	0.4 (≈ 0.68 µM)	0.4 (≈ 0.68 µM)	0.4 to 1	0.3 to 1	0.08 (≈ 0.136 µM)	0.08 (≈ 0.136 µM)	0.25 to 1 (≈ 0.425 to 1.7 µM)	1.01 to 2 (≈ 1.72 to 3.4 µM)	0.25 to 1 (≈ 0.425 to 1.7 µM)	1.01 to 2 (≈ 1.72 to 3.4 µM)	0.25 to 1 (≈ 0.425 to 1.7 µM)	2.01 to 4 (≈ 3.41 to 6.8 µM)	0.08 (≈ 0.136 µM)	0.08 (≈ 0.136 µM)	0.08 (≈ 0.136 µM)	0.08 (≈ 0.136 µM)	IC90 (Botrtyis cinerea (Bc); [22]): 2 µg/mL (≈ 3.4 µM); IC90 (Botrtyis cinerea (Bc); [23]): 2 µg/mL (≈ 3.4 µM)
COCCCO[C@@H](Cn1c(=O)n([C@@H](C)C(=O)NC(C)C)c(=O)c2c(C)c(-n3nccn3)sc21)c1cc(F)ccc1OC [Compound I-86, (S)-2-(1-((R)-2-(5-fluoro-2-methoxyphenyl)-2-(3-methoxy-propoxy)ethyl)-5-methyl-2,4-dioxo-6-(2H-1,2,3-triazol-2-yl)-1,4-dihydrothieno[2,3-d]pyrimidin-3(2H)-yl)-N-isopropylpropanamide]	–	–	–	–	–	–	1 to 5	1 to 5	–	–	–	–	–	–	–	–	–	–	–	–	Concentration at 90% Inhibition Fm [1, 4]: AA (compound concentration of 0.08 ppm at 90% inhibition of fungal pathogens); IC90 [1]: 0.08 µg/mL (≈ 0.133 µM); IC90 (Septoria tritici (St); read-out: Concentration at 90% Inhibition St, Septoria tritici, growth inhibition at 48 hours vs 2% DMSO control): > 50 µg/mL; IC90 (Septoria tritici (St); read-out: Concentration at 90% Inhibition St, Septoria tritici, growth inhibition vs 2% DMSO control at 48 hours): > 50 µg/mL; IC90 ([2]; read-out: Concentration at 90% Inhibition Fv, Fusarium virguliforme, growth inhibition at 48 hours vs 2% DMSO control): 10 µg/mL (≈ 16.6 µM); IC90 ([2]; read-out: Concentration at 90% Inhibition Fv, Fusarium virguliforme, growth inhibition vs 2% DMSO control at 48 hours): > 50 µg/mL; IC90 (Rhizoctonia solani (Rs); read-out: Concentration at 90% Inhibition Rs, Rhizoctonia solani, mycelial plugs, growth inhibition at 48 hours vs 2% DMSO control): 2 µg/mL (≈ 3.32 µM); IC90 (Rhizoctonia solani (Rs); read-out: Concentration at 90% Inhibition Rs, Rhizoctonia solani, mycelial plugs, growth inhibition vs 2% DMSO control at 48 hours): 2 µg/mL (≈ 3.32 µM); MIC (C. albicans; read-out: MIC, C. albicans ATCC 90028, Table 3a, 3 replicates, MIC recorded at 48 h): 2.1 to 4 µg/mL (≈ 3.48 to 6.64 µM); MIC (C. albicans; read-out: MIC, C. albicans ATCC 90028, Table 3b (additional results), 3 replicates, MIC recorded at 48 h): 2.01 to 4 µg/mL (≈ 3.34 to 6.64 µM); MIC (C. krusei; read-out: MIC, C. krusei ATCC 6258, Table 3a, 3 replicates, MIC recorded at 48 h): 2.1 to 4 µg/mL (≈ 3.48 to 6.64 µM); MIC (C. krusei; read-out: MIC, C. krusei ATCC 6258, Table 3b (additional results), 3 replicates, MIC recorded at 48 h): 1.01 to 2 µg/mL (≈ 1.68 to 3.32 µM); MIC (C. parapsilosis; read-out: MIC, C. parapsilosis ATCC 22019, Table 3a, 3 replicates, MIC recorded at 48 h): 2.1 to 4 µg/mL (≈ 3.48 to 6.64 µM); MIC (C. parapsilosis; read-out: MIC, C. parapsilosis ATCC 22019, Table 3b (additional results), 3 replicates, MIC recorded at 48 h): 1.01 to 2 µg/mL (≈ 1.68 to 3.32 µM); IC90 (Diplodia maydis (Dm); read-out: Concentration at 90% Inhibition Dm, Diplodia maydis, growth inhibition at 48 hours vs 2% DMSO control): 2 µg/mL (≈ 3.32 µM); IC90 (Diplodia maydis (Dm); read-out: Concentration at 90% Inhibition Dm, Diplodia maydis, growth inhibition vs 2% DMSO control at 48 hours): 2 µg/mL (≈ 3.32 µM); IC90 ([3]; read-out: Concentration at 90% Inhibition Cg, Collectotrichum graminicola, growth inhibition at 48 hours vs 2% DMSO control): 10 µg/mL (≈ 16.6 µM); IC90 ([3]; read-out: Concentration at 90% Inhibition Cg, Collectotrichum graminicola, growth inhibition vs 2% DMSO control at 48 hours): > 50 µg/mL; IC90 (Botrtyis cinerea (Bc); read-out: Concentration at 90% Inhibition Bc, Botrtyis cinerea, growth inhibition at 48 hours vs 2% DMSO control): 0.4 µg/mL (≈ 0.664 µM); IC90 (Botrtyis cinerea (Bc); read-out: Concentration at 90% Inhibition Bc, Botrtyis cinerea, growth inhibition vs 2% DMSO control at 48 hours): 0.4 µg/mL (≈ 0.664 µM)
